Consider seven compounds from patent publication US4061741A, “Physiological substances for intensifying the pharmacological effect of drugs” (Firma Servomed Arzei GmbH & Co. Pharma KG, priority 1974, dated 1977).

“Also recorded” adds a separate entry of the source. Structures can show the parent of a compound that is named as a salt.

In one data set the test system is CFI mice. Briefly: analgesic efficacy, writhing test, 60 minutes after oral application (Examples 5 to 8, Tables V to VIII). It is filed as in vivo, mouse (CFI). The note with it: for ED50: Mus musculus, 1 h, 60 mins. As for the experimental part: The analgesic efficacy of sodium salicylate, sodium salicylate + choline orotate in the molar ratio of 1:1 and sodium salicylate + choline orotate in the molar ratio of 1:2 was compared in the writhing test on mice and the ED50 determined after 1 hour.
As in Example 5, the ED50 of metamizol and metamizol + choline orotate in the molar ratio of 1:2 was determined after one hour by the writhing test.
The analgesic effects of codeine phosphate and codeine phosphate + choline orotate (molar ratio 1:1) are compared in the writhing test on mice.
On the technique in general: In writhing tests, fewer writhes than in controls are read as antinociception.

The subject of the next data set is NMRI mice. The experiment in a line: analgesic efficacy, writhing syndrome, oral (Example 1, Table I). Format: in vivo, mouse (NMRI, female). On the procedure:
Dextropropoxyphene-HCl, dextropropolyphenorotate and dextropropoxyphene orotate + orotic acid (in the molar ratio 1:1) were tested on mice to determine their analgesic efficacy after oral administration following the "writhing" syndrome. The ED50 was determined after 15 minutes, 30 minutes, 60 minutes and 180 minutes.
ED50 in […] of mouse (calculated with respect to the
dextropropoxyphene-HCl);
oral application, writhing syndrome, 800 NMRI mice, […]

Data set [1] has as its system guinea pigs. Briefly: antitussive action, Turner cough test, citric acid aerosol, intravenous (Example 3, Table III). Format: in vivo, guinea pig. On the procedure:
As with Example 2, the two substances laevopropoxyphene-HCl and laevopropoxyphene orotate were tested and compared with respect to their antitussive action. This time, however, intravenous applications were adopted.
% cough inhibition; the figures in brackets represent mg
propoxyphene-HCl in the 1-propoxyphene orotate.
320 guinea pigs (350 g); intravenous application. 7.5%

The subject of data set [2] is guinea pigs. The experiment in a line: antitussive efficacy, Turner cough test, citric acid aerosol, oral (Example 2, Table II). Format: in vivo, guinea pig. The note with it: for % cough inhibition: 30 minutes after oral application; for ED50: calculated according to the Gaussian Integral from the values of Table II, 30 minutes; for ED50 / antitussive efficacy (in words): oral; for antitussive efficacy (in words): in the dosages tested, guinea pigs. On the procedure: The antitussive efficacy of laevopropoxyphene-HCl and laevopropoxyphene orotate was compared on guinea pigs, using the Turner cough test.
% cough inhibition 30 minutes after oral application.
70 guinea pigs, 250 g; 7.5% citric acid aerosol for 10
minutes in the respired air.
According to the Gaussian Integral, from the values shown in the Table, the ED50 can be calculated for: L-propoxyphene-HCl as being greater than 200 mg/kg of animal, 1-propoxyphene orotate 79 ± 8 mg/kg of animal.

Data set [3] relates to guinea pigs. The experiment in a line: antitussive efficacy, Turner cough test, citric acid aerosol, oral (Example 4, Table IV). Format: in vivo. The note with it: guinea pig, calculated with respect to 1-propoxyphene-HCl. As for the experimental part: The antitussive efficacy of laevopropoxyphene-HCl, laevopropoxyphene orotate, laevopropoxyphene orotate + choline orotate (in the molar ratio 1:1) and of laevopropoxyphene-HCl + choline orotate (in the molar ratio of 1:2) was tested and compared after oral application on guinea pigs using the Turner cough test.
ED50 in mg/kg of guinea pig. Values calculated with respect
280 guinea pigs (350 g); oral application.
7.5% citric acid aerosol.

For a further data set, the system named is blood proteins. The experiment in a line: drug not bonded to serum protein, ultrafiltration of human serum with and without orotic acid. It is filed as in vitro ADME. The note with it: in the presence of orotic acid. On the procedure: 1 ml of this serum is then ultrafiltered at the same temperature, accompanied by agitation. (Filter permeability up to a molecular weight of approx. 10,000). The radioactivity contained in this ml is measured. The measured value, found […], indicates the percentage of drug which is not bonded to protein. The same test is repeated but in the presence of non-radioactively marked orotic acid in a molar ratio to the marked drug of for example 1:1 or 1:2. The percentage of free drug is calculated similarly as described above. If the second measured value is higher than the first, then this is a measure of improved availability of the drug. This increased availability is confirmed in experiments with animals.

As usually defined, the ED50 is the dose that gives a 50% effect, or the effect in half of the subjects. Take `COc1ccc2c3c1O[C@H]1[C@@H](O)C=C[C@H]4[C@@H](C2)N(C)CC[C@@]341` [Codeine phosphate]: the ED50 with CFI mice (oral, writhing syndrome, CFI mice, female, 20 to 22 g, Table VII) came out at 82 mg/kg.
With `CCC(=O)O[C@](Cc1ccccc1)(c1ccccc1)[C@H](C)CN(C)C` [Dextropropoxyphene orotate], the “analgesic efficacy (in words)” value in the data set with NMRI mice is given as “substantially more intensely effective as an analgesic than dextropropoxyphene-HCl by itself”.
As for `CCC(=O)O[C@@](Cc1ccccc1)(c1ccccc1)[C@@H](C)CN(C)C` [Laevopropoxyphene orotate], the “% cough inhibition” value in the data set with guinea pigs [1] (1 (0.758) mg/kg, 5 min., bracket = mg propoxyphene-HCl) turned out to be 17.5%; with guinea pigs [1] (1 (0.758) mg/kg, 10 min.), 24%; in the data set on guinea pigs [1] (1 (0.758) mg/kg, 15 min.) it was 30%; with guinea pigs [1] (1 (0.758) mg/kg, 20 min.), 23%; in the data set on guinea pigs [1] (3 (2.27) mg/kg, 5 min.), 31.0%; in the data set on guinea pigs [1] (3 (2.27) mg/kg, 10 min.), 30%. In addition, the “% cough inhibition” value with guinea pigs [1] (3 (2.27) mg/kg, 15 min.) was 36%; in the data set on guinea pigs [1] (3 (2.27) mg/kg, 20 min.), 47%; in the data set with guinea pigs [1] (5 (3.79) mg/kg, 5 min.), 40.5%; with guinea pigs [1] (5 (3.79) mg/kg, 10 min.), 48%; with guinea pigs [1] (5 (3.79) mg/kg, 15 min.), 53%; in the data set on guinea pigs [1] (5 (3.79) mg/kg, 20 min.), 59%. The “% cough inhibition” value in the data set with guinea pigs [1] (7.5 (5.69) mg/kg, 5 min.) worked out at 52.0%; with guinea pigs [1] (7.5 (5.69) mg/kg, 10 min.), 59%; with guinea pigs [1] (7.5 (5.69) mg/kg, 15 min.) it was 63%; with guinea pigs [1] (7.5 (5.69) mg/kg, 20 min.), 62%; with guinea pigs [2] (25 mg/kg) it was 6%; with guinea pigs [2] (50 mg/kg), 31%. The “% cough inhibition” value turned out to be 47% in the data set with guinea pigs [2] (75 mg/kg) and 56% in the data set with guinea pigs [2] (100 mg/kg). In addition, the “antitussive efficacy (in words)” value is recorded as “superior efficacy” in the data set with guinea pigs [1] (guinea pigs) and “outstanding antitussive efficacy” with guinea pigs [2]. For the same compound, the ED50 is on record as 79 ± 8 mg/kg of animal in the data set with guinea pigs [2] (listed as 1-propoxyphene orotate); 103 mg/kg in the data set on guinea pigs [3] (1 hr., listed as Laevopropoxyphene crotate, 60 min); 68 mg/kg with guinea pigs [3] (3 hr., listed as Laevopropoxyphene crotate, 180 min).
In the case of `CCC(=O)O[C@@](Cc1ccccc1)(c1ccccc1)[C@@H](C)CN(C)C` [Laevopropoxyphene-HCl], the “% cough inhibition” value is reported as 11% in the data set with guinea pigs [1] (2 mg/kg, 5 min.); 0% with guinea pigs [1] (2 mg/kg, 10 min.); 0% with guinea pigs [1] (2 mg/kg, 15 min.); 24% with guinea pigs [1] (5 mg/kg, 5 min.); 0% in the data set on guinea pigs [1] (5 mg/kg, 10 min.); 0% with guinea pigs [1] (5 mg/kg, 15 min.). Moreover, the “% cough inhibition” value is recorded as 0% in the data set with guinea pigs [2] (25 mg/kg); 8% with guinea pigs [2] (50 mg/kg); 0% with guinea pigs [2] (75 mg/kg); 11% in the data set on guinea pigs [2] (100 mg/kg); 0% in the data set on guinea pigs [2] (150 mg/kg); 9% in the data set on guinea pigs [2] (200 mg/kg). Besides, in the data set with guinea pigs [1] (7.5 mg/kg), the “toxicity remark in the cough inhibition table” value is listed as “subtoxic”. For the same compound, the ED50 entry was “greater than 200 mg/kg of animal” in the data set on guinea pigs [2] (listed as L-propoxyphene-HCl); 250 mg/kg in the data set with guinea pigs [3] (1 hr., listed as Laevorpopoxyphene-HCl, 60 min); 195 mg/kg with guinea pigs [3] (3 hr., listed as Laevorpopoxyphene-HCl, 180 min). The “antitussive efficacy (in words)” value in the data set on guinea pigs [2] is recorded as “no antitussive efficacy”.
As for `Cc1c(N(C)CS(=O)(=O)O)c(=O)n(-c2ccccc2)n1C` [Metamizol], the 50% effect level in the data set on CFI mice (oral, writhing test, CFI mice (18 to 20 g), Table VI) (ED50) was put at a dose of 380 mg/kg. The “analgesic efficacy on addition of an orotic acid salt (in words)” value in the data set on CFI mice (metamizol, writhing test, mice, oral) is “reinforcement of the analgesic efficacy”.
In the case of `CCCCC1C(=O)N(c2ccccc2)N(c2ccccc2)C1=O` [Phenyl butazone], the “amount of drug in the ultrafiltrate (in words)” value in the data set with blood proteins is recorded as “not found in increased quantity in the ultrafiltrate; also recorded: no more drug is found”. Further, in the data set with CFI mice (oral, writhing syndrome, CFI mice, female, 20 to 22 g, Table VIII), the ED50 came out at 130 ± 45 mg/kg. The “analgesia in animal experiments (in words)” value in the data set with CFI mice (in the presence of orotic acid) is reported as “no reinforced analgesia; also recorded: no reinforced pharmacological action”.
`O=C([O-])c1ccccc1O.[Na+]` [Sodium salicylate] came in with an ED50 in the data set with CFI mice (oral, writhing test, CFI mice (18 - 20 g), Table V) of 580 mg/kg.
